The numbers were not newly measured in the CATMoS acute toxicity set (Mansouri et al. 2021), which cites them from elsewhere.

The structures appear in SMILES notation. Several values for one entry are separate records, joined by “and”; a condition that tells them apart may be missing. Identical values can stand only once.

The series is described as follows: rat acute oral toxicity. The note with it: in vivo.
Consider `COC(=O)C1=C(C)NC(C)=C(C(=O)OCCN2CCN(C(c3ccccc3)c3ccccc3)CC2)C1c1cccc([N+](=O)[O-])c1` (stereo unspecified), for which the LD50 is 156 mg/kg. Take `CC(C)=CCCC(C)CC#N` (stereo unspecified): the LD50 was 5300 mg/kg. For the molecule `Cn1c(=O)c2c(ncn2CC2SCCS2)n(C)c1=O`, the LD50 was 1840 mg/kg. With `C=CCOP(OCC=C)OCC=C`, the LD50 was 178 mg/kg.

Regarding `c1ccc2c(OCCN3CCCC3)ccnc2c1`, the LD50 is 280 mg/kg. `O=C(O)c1c(Cl)c(Cl)c(Cl)c(Cl)c1C(O)=Nc1cccc(Cl)c1Cl`: the LD50 was 2340 mg/kg. Consider `C=C(O)C(=O)O`, for which the LD50 is 10000 mg/kg. In the case of `COP(=S)(OC)SC(CBr)N1C(=O)c2ccccc2C1=O` (stereo unspecified), the LD50 was 188 mg/kg.

Regarding `CN1CC(CCN2CC=C(c3ccccc3)CC2)OC1=O` (stereo unspecified), the LD50 was 340 mg/kg. For the molecule `C[C@H]1CCCCN1N=O`, the 50% lethal dose (LD50) was 600 mg/kg. On to `C=Cc1cccc(Cl)c1`, for which the LD50 is 5200 mg/kg. For `CCOC(=O)Cc1cccc2ccccc12`, the LD50 is 3580 mg/kg. On to `COP(=S)(OC)Oc1cc(C)c(Cl)cc1C(C)C`, for which the LD50 is 500 mg/kg.

Regarding `O=[N+]([O-])c1nccn1CC(O)CO` (stereo unspecified), the LD50 is 5080 mg/kg. On to `c1ccc2c(c1)CCN1CCN=C1C2`, for which the LD50 is 60 mg/kg. Take `CC(=O)Nc1ccc(S(=O)(=O)Nc2cc(C)on2)cc1`: the LD50 is 8400 mg/kg. As to `CC(C)n1nc(-c2cccc(Cl)c2Cl)c(N)nc1=N`, the LD50 was 229 mg/kg. With `CNS(=O)(=O)c1cc(Cl)c(Cl)cc1Cl`, the LD50 was 5100 mg/kg. `COP(=S)(OC(C)C)SCN1C(=O)c2ccccc2C1=O` (stereo unspecified): the LD50 is 50 mg/kg. For `OC(CNCC(O)C1COc2ccccc2O1)C1COc2ccccc2O1` (stereo unspecified), the LD50 was 4490 mg/kg.

As to `Fc1cccc(C(F)(F)F)n1`, the LD50 was 50 mg/kg. As for `CCOP(=S)(Oc1ccc(C#N)cc1)c1ccccc1` (stereo unspecified), the LD50 was 28.5 mg/kg. `CC(=O)Nc1ccc2c(c1)OCO2`: the LD50 is 1000 mg/kg. Turning to `Cc1nc(C)c(C)nc1C`, the LD50 was 1910 mg/kg. Consider `Cc1ccc(SN2C(=O)c3ccccc3C2=O)cc1`, for which the LD50 was 5060 mg/kg. As to `CCOP(=O)(OCC)C(SCC)(Sc1ccccc1)P(=O)(OCC)OCC`, the LD50 was 24 mg/kg. Regarding `Cc1cccc(C#N)c1C`, the LD50 was 3000 mg/kg.

Consider `CCN1CCC(=C(c2ccccc2)c2ccccc2)C1`, for which the median lethal dose (LD50) was 166 mg/kg and 450 mg/kg.

`Nc1ncnc2nccnc12`: the LD50 was 745 mg/kg.

Regarding `OCCOCCOCCN1CCN(C(c2ccccc2)c2ccc(Cl)cc2)CC1` (stereo unspecified), the LD50 is 920 mg/kg.

Turning to `ClC(Cl)(Cl)c1cccc(C(Cl)(Cl)Cl)c1`, the LD50 is 2920 mg/kg. For `CCCCOCCOCCOCCOCCOCCCC`, the LD50 was 6500 mg/kg.

On to `O=C(C(F)(F)F)C(F)(F)Cl`, for which the LD50 was 85 mg/kg. Regarding `COc1cc(C=CC(=S)N2CCOCC2)cc(OC)c1OC`, the LD50 is 1350 mg/kg. As for `CCCCOc1ccc(OCC(=O)N(CCN(CC)CC)c2cc(OCC)ccc2OCC)cc1`, the LD50 was 2400 mg/kg. Take `Nc1ccccc1-c1ccccc1`: the LD50 was 2340 mg/kg.

Turning to `O=C(O)C(Br)Br`, the LD50 was 1740 mg/kg. In the case of `C#CC(C)(C)NC(=O)C=Cc1cc(OC)c(OC)c(OC)c1`, the LD50 is 570 mg/kg. For `COc1ccc(-c2noc(CC(=O)O)c2-c2ccc(OC)cc2)cc1`, the LD50 is 887 mg/kg. In the case of `CCOC(C1=NCC(C)(C)CN1)c1ccccc1Cl` (stereo unspecified), the LD50 was 310 mg/kg. For `CCC(C)c1cc([N+](=O)[O-])cc([N+](=O)[O-])c1OC(=O)SC` (stereo unspecified), the LD50 was 200 mg/kg.

With `O=S1(=O)CC=CC1`, the LD50 is 2550 mg/kg. In the case of `O=C(O)C1CCc2cc(C3CCCCC3)c(Cl)cc21` (stereo unspecified), the LD50 is 41 mg/kg and 35 mg/kg. `CSC(C)(C)C=NOC(=O)N(C)SN(C)Cc1ccccc1`: the LD50 is 9.4 mg/kg. As to `Cc1cn([C@H]2C[C@H](N=[N+]=[N-])[C@@H](CO)O2)c(=O)[nH]c1=O`, the LD50 is 3080 mg/kg. As for `C#CC(C)OC(=O)Nc1cccc(Cl)c1` (stereo unspecified), the LD50 was 2380 mg/kg. Regarding `O=C1NN=C(c2ccccc2)CO1`, the LD50 was 441 mg/kg.

Take `CCCNNc1ccccc1`: the LD50 is 13 mg/kg. As for `O=C(O)Cn1c(=O)n(Cc2ccc(Br)cc2F)c(=O)c2ccc(Cl)cc21`, the LD50 was 4250 mg/kg. As for `Cc1ccc(N(SC(F)(Cl)Cl)S(=O)(=O)N(C)C)cc1`, the LD50 was 1000 mg/kg. For the molecule `CC(C)(C)NCC(O)c1ccccc1Cl` (stereo unspecified), the LD50 is 560 mg/kg. `COP(=S)(OC)Oc1cc(C)ccc1C(C)C`: the LD50 is 750 mg/kg. In the case of `O=C(Cl)CCCCCCCCC(=O)Cl`, the LD50 is 400 mg/kg.

Turning to `C#CCN(C)Cc1ccccc1`, the LD50 is 250 mg/kg and 300 mg/kg. With `CCC1(CC)COC(=O)NC1=O`, the LD50 was 71 mg/kg.

`O=C(OCC(O)CO)c1ccccc1Nc1ccnc2c(C(F)(F)F)cccc12` (stereo unspecified): the LD50 was 535 mg/kg. As to `Cc1ccccc1-n1c(C)nc2ccccc2c1=O`, the LD50 was 185 mg/kg. On to `CCCC=C(CC)C(=O)O`, for which the LD50 was 5660 mg/kg. Turning to `O=S(=O)(O)c1c(O)ccc2ccccc12`, the LD50 is 3170 mg/kg. `CCN(CC)CCOCCOC(=O)C(CC)(CC)c1ccccc1`: the LD50 is 183 mg/kg. On to `CSCC[C@H](N)C(=O)O`, for which the LD50 was 36000 mg/kg.

Broadly, the LD50 is the dose at which mortality reaches 50%.
